Test [1] relates to A/Illinois/08/2018 A(H1N1)pdm09. Nature of the test: microbe, parasite or virus in culture. The class given is cell-based, influenza A(H1N1)pdm09 virus. The following applies: Influenza A virus, H1N1, read-out: Mean EC50 ± SD.
Test [2] relates to A/Louisiana/50/2017 A(H3N2). The test can be described thus: microbe, parasite or virus in culture. The class given is cell-based. The following applies: Influenza A virus, H3N2, read-out: Mean EC50 ± SD.
Test [3] has as its system A/bald eagle/Florida/22-006544-004/2022. Nature of the test: microbe, parasite or virus in culture. Format: cell-based, influenza A(H5N1) virus. The following applies: Influenza A virus, read-out: Mean EC50 ± SD.
Test [4] deals with A/black vulture/Florida/22-012331-001/2022. Nature of the test: microbe, parasite or virus in culture. Format: cell-based, influenza A(H5N1) virus. The following applies: Influenza A virus, read-out: Mean EC50 ± SD.
The test system of test [5] is A/fox/Wisconsin/22-014746-030/2022. The test can be described thus: microbe, parasite or virus in culture. The class given is cell-based, influenza A(H5N1) virus. The following applies: Influenza A virus, read-out: Mean EC50 ± SD.
Test [6] concerns A/Illinois/08/2018 A(H1N1)pdm09. Format: cell-based, influenza A(H1N1)pdm09 virus. The following applies: read-out: Mean EC50 ± SD.
In test [7] the target is NA of A/Illinois/45/2019 A(H1N1)pdm09 (Influenza A virus, UniProt A0A0X9QTS2). Format: biochemical. The following applies: read-out: Mean IC50 ± SD.
Test [8] addresses NA of A/bald eagle/Florida/22-006544-004/2022 (Influenza A virus, UniProt Q9Q0U7). Format: biochemical. The following applies: read-out: Mean IC50 ± SD.
The target in test [9] is NA of A/turkey/Iowa/22-012098-001/2022 (Influenza A virus, UniProt Q9Q0U7). The class given is biochemical. The following applies: read-out: Mean IC50 ± SD.
Test [10] addresses NA of A/black vulture/Maryland/22-012407-001/2022 (Influenza A virus (H5N1), UniProt Q9Q0U7). The class given is biochemical. The following applies: read-out: Mean IC50 ± SD.
In test [11] the target is NA of A/Cooper's hawk/Minnesota/22-012931-001/2022 (Influenza A virus, UniProt Q9Q0U7). The class given is biochemical, influenza A(H5N1) virus. The following applies: read-out: Mean IC50 ± SD.
The target of test [12] is NA of A/red-shouldered hawk/Minnesota/22-012000-004/2022 (Influenza A virus, UniProt Q9Q0U7). Format: biochemical. The following applies: read-out: Mean IC50 ± SD.
For test [13], the target named is NA of A/fox/Wisconsin/22-013774-002/2022 (Influenza A virus, UniProt Q9Q0U7). Format: biochemical. The following applies: read-out: Mean IC50 ± SD.
Test [14] addresses NA of A/Canada goose/Wyoming/22-011671-001/2022 (Influenza A virus, UniProt Q9Q0U7). The class given is biochemical, influenza A(H5N1) virus. The following applies: read-out: Mean IC50 ± SD.
Test [15] concerns the target NA of A/fox/Michigan/22-014536-004/2022 (del50-70) (Influenza A virus, UniProt Q9Q0U7). Format: biochemical, influenza A(H5N1) virus. The following applies: read-out: Mean IC50 ± SD.
Test [16] deals with NA of A/black vulture/Florida/22-012333-001/2022 (N/S295, T/N438, mixed population) (Influenza A virus (H5N1), UniProt Q9Q0U7). The class given is biochemical. The following applies: read-out: Mean IC50 ± SD.

Where two headings read alike, the source gives them in different places.

The term EC50 denotes the concentration at which the effect is half-maximal. What is called IC50 is the concentration at which inhibition is half-maximal.

With `O=C1c2c(O)c(=O)ccn2N([C@@H]2c3ccccc3SCc3c2ccc(F)c3F)[C@@H]2COCCN12` [Baloxavir, baloxavir acid], the EC50 in [1] is 1.65 ± 0.44 nM; in test [2], 1.04 ± 0.43 nM; in test [3] it was 0.41 nM; in test [4] it was 0.44 nM; in test [5], 0.32 nM; in test [6], 1.12 ± 0.32 nM.

Regarding oseltamivir carboxylate, the IC50 in [7] was 0.17 ± 0.03 nM.

Take peramivir: the IC50 amounted to 0.08 nM in [8]; 0.1 nM in test [9]; 0.1 nM in test [10]; 0.1 nM in [11]; 0.09 nM in test [12]; 0.09 nM in test [13]. Further, the concentration for half-maximal inhibition (IC50) in test [14] was 0.08 nM; in test [15] it was 0.1 nM; in test [16] it was 0.55 nM; in test [7], 0.06 ± 0.01 nM.

(Values after paper PMC10508830 (Antiviral research, 2023).)
